22 molecules from patent US8748417B2, “Amino-pyrrolidine-azetidine diamides as monoacylglycerol lipase inhibitors” (Janssen Pharmaceutica, NV, priority 2010, dated 2014) can be followed below.

The IC50 is the point on the concentration scale where inhibition reaches its midpoint.

The target of test [1] is T1, purified wild type MGL (wt-MGLL 6H-11-313) (Homo sapiens, UniProt Q99685).
T1 construct: purified wild type MGL (wt-MGLL 6H-11-313)
T1 sequence (Q99685 1-303): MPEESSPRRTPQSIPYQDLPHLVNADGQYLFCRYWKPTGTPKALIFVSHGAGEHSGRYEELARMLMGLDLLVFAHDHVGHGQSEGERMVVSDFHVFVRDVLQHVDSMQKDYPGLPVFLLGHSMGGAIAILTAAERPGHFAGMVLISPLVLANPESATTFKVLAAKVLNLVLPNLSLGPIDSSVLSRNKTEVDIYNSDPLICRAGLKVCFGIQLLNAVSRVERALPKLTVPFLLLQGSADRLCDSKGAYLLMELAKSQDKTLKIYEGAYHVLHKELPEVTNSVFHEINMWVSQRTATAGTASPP
In words: MGL enzyme activity assay (4MU-B cleavage), wild type MGL. To be noted: wild type MGL 5 nM, 4MU-B 10 μM, 37° C.; read-out: MGL wild type inh IC50. The test is classed as biochemical. In a few lines: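 Enzyme in 20 mM PIPES pH 7.0, 150 mM NaCl, 0.001% Tween 20 with 4MU-B at 10 μM final and MGL at 5 nM final; compounds 17 to 0.0003 μM final, enzyme added last. Fluorescence (ex 335/em 440 nm) followed at 37° C for 5 min; IC50 from fit of fractional activity versus inhibitor concentration.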

Test [2] concerns MGL (rat brain homogenate). Put plainly: 2-AG accumulation assay in rat brain homogenate. The following applies: compound 1 μM, percent of vehicle 2-AG accumulation. Format: biochemical. The procedure:
After a 15-min incubation time at 37° C., CaCl2 (final concentration=10 mM) was added and then incubated for 15 min at 37° C. in a total volume of 5 mL. The reactions were stopped with 6 mL organic solvent extraction solution of 2:1 chloroform/methanol. Accumulated 2-AG in the organic phase was measured by a HPLC/MS method, according to the following equation: percent vehicle=(2-AG accumulation in the presence of compound/2-AG accumulation in vehicle)×100.

With `O=C(c1ccc2c(ccn2-c2ncccn2)c1)N1CC(N[C@H]2CCN(C(=O)c3nccs3)C2)C1` [Cpd 119, (3S)-N-{1-[(1-Pyrimidin-2-yl-1H-indol-5-yl)carbonyl]azetidin-3-yl}-1-(1,3-thiazol-2-ylcarbonyl)pyrrolidin-3-amine], the IC50 in test [1] came to 48.8 nM. In addition, the “Rat Brain 2AG % VehCntrl (%) @1 μM” value in test [2] came out at 255%.

Regarding `O=C(c1ccccc1)N1CC[C@H](NC2CN(C(=O)c3cc4cc(-c5ccc(Cl)s5)ccc4o3)C2)C1` [Cpd 122, (3S)-N-(1-{[5-(5-Chlorothiophen-2-yl)-1-benzofuran-2-yl]carbonyl}azetidin-3-yl)-1-(phenylcarbonyl)pyrrolidin-3-amine], the IC50 in test [1] came out at 59.7 nM. Further, in test [2], the “Rat Brain 2AG % VehCntrl (%) @1 μM” value is given as 152%.

As to `Cc1c(C(=O)N2CC(N[C@H]3CCN(C(=O)c4cscn4)C3)C2)sc2ccc(-c3ccccc3)cc12` [Cpd 123, (3S)-N-{1-[(3-Methyl-5-phenyl-1-benzothiophen-2-yl)carbonyl]azetidin-3-yl}-1-(1,3-thiazol-4-ylcarbonyl)pyrrolidin-3-amine], the IC50 in test [1] was below 5 nM. Moreover, the “Rat Brain 2AG % VehCntrl (%) @1 μM” value in test [2] was found to be 661%.

With `O=C(c1cscn1)N1CC[C@H](NC2CN(C(=O)c3cc4ccc(-c5ccccc5)cc4s3)C2)C1` [Cpd 124, (3S)-N-{1-[(6-Phenyl-1-benzothiophen-2-yl)carbonyl]azetidin-3-yl}-1-(1,3-thiazol-4-ylcarbonyl)pyrrolidin-3-amine], in test [1], the IC50 was found to be 6 nM. The “Rat Brain 2AG % VehCntrl (%) @1 μM” value in test [2] was 227%.

Consider `O=C(c1ccc(Cc2cccc(C(F)(F)F)c2)cc1)N1CC(N[C@H]2CCN(C(=O)c3ccccc3)C2)C1` [Cpd 126, (3S)-1-(Phenylcarbonyl)-N-[1-({4-[3-(trifluoromethyl)benzyl]phenyl}carbonyl)azetidin-3-yl]pyrrolidin-3-amine], for which the 50% inhibitory concentration (IC50) in test [1] was below 5 nM. Besides, the “Rat Brain 2AG % VehCntrl (%) @1 μM” value in test [2] was determined as 715%.

For `O=C(c1ccc(Cc2cccc(C(F)(F)F)c2)cc1)N1CC(N[C@H]2CCN(C(=O)c3cscn3)C2)C1` [Cpd 127, (3S)-1-(1,3-Thiazol-4-ylcarbonyl)-N-[1-({4-[3-(trifluoromethyl)benzyl]phenyl}carbonyl)azetidin-3-yl]pyrrolidin-3-amine], in test [1], the IC50 was below 5 nM. Moreover, the “Rat Brain 2AG % VehCntrl (%) @1 μM” value in test [2] stood at 618%.

Take `O=C(c1cscn1)N1CC[C@H](NC2CN(C(=O)c3cc4ccc(-c5ccc(C(F)(F)F)cc5)cc4s3)C2)C1` [Cpd 128, (3S)-1-(1,3-Thiazol-4-ylcarbonyl)-N-[1-({6-[4-(trifluoromethyl)phenyl]-1-benzothiophen-2-yl}carbonyl)azetidin-3-yl]pyrrolidin-3-amine]: the IC50 in test [1] came to 5 nM. For the same molecule, the “Rat Brain 2AG % VehCntrl (%) @1 μM” value in test [2] is listed as 491%.

For `O=C(c1cc2cc(-c3ccccc3)ccc2s1)N1CC(N[C@H]2CCN(C(=O)c3nccs3)C2)C1` [Cpd 129, (3S)-N-{1-[(5-Phenyl-1-benzothiophen-2-yl)carbonyl]azetidin-3-yl}-1-(1,3-thiazol-2-ylcarbonyl)pyrrolidin-3-amine], the IC50 in test [1] is below 5 nM. Further, the “Rat Brain 2AG % VehCntrl (%) @1 μM” value in test [2] was 590%.

Regarding `O=C(c1cscn1)N1CC[C@H](NC2CN(C(=O)c3cc4cc(-c5cccc(C(F)(F)F)c5)ccc4s3)C2)C1` [Cpd 130, (3S)-1-(1,3-Thiazol-4-ylcarbonyl)-N-[1-({5-[3-(trifluoromethyl)phenyl]-1-benzothiophen-2-yl}carbonyl)azetidin-3-yl]pyrrolidin-3-amine], the IC50 in test [1] was below 5 nM. For the same molecule, the “Rat Brain 2AG % VehCntrl (%) @1 μM” value in test [2] is recorded as 747%.

For `O=C(c1cscn1)N1CC[C@H](NC2CN(C(=O)c3cc4cc(-c5ccccc5)ccc4s3)C2)C1` [Cpd 131, (3S)-N-{1-[(5-Phenyl-1-benzothiophen-2-yl)carbonyl]azetidin-3-yl}-1-(1,3-thiazol-4-ylcarbonyl)pyrrolidin-3-amine], in test [1], the IC50 was below 5 nM. The “Rat Brain 2AG % VehCntrl (%) @1 μM” value in test [2] is 385%.

`O=C(c1cc2cc(-c3cccc(C(F)(F)F)c3)ccc2s1)N1CC(N[C@H]2CCN(C(=O)c3nccs3)C2)C1` [Cpd 132, (3S)-1-(1,3-Thiazol-2-ylcarbonyl)-N-[1-({5-[3-(trifluoromethyl)phenyl]-1-benzothiophen-2-yl}carbonyl)azetidin-3-yl]pyrrolidin-3-amine]: the IC50 in test [1] was below 5 nM. Besides, the “Rat Brain 2AG % VehCntrl (%) @1 μM” value in test [2] is on record as 1233%.

With `O=C(c1cc2ccc(C(F)(F)F)cc2s1)N1CC(N[C@H]2CCN(C(=O)c3nccs3)C2)C1` [Cpd 138, (3S)-1-(1,3-Thiazol-2-ylcarbonyl)-N-(1-{[6-(trifluoromethyl)-1-benzothiophen-2-yl]carbonyl}azetidin-3-yl)pyrrolidin-3-amine], the concentration for half-maximal inhibition (IC50) in test [1] stood at 16 nM. The “Rat Brain 2AG % VehCntrl (%) @1 μM” value in test [2] turned out to be 340%.

As for `O=C(c1nccs1)N1CC[C@H](NC2CN(C(=O)c3sc4cc(Br)ccc4c3Cl)C2)C1` [Cpd 140, (3S)-N-{1-[(6-Bromo-3-chloro-1-benzothiophen-2-yl)carbonyl]azetidin-3-yl}-1-(1,3-thiazol-2-ylcarbonyl)pyrrolidin-3-amine], the IC50 in test [1] worked out at 12.4 nM. Further, in test [2], the “Rat Brain 2AG % VehCntrl (%) @1 μM” value is 742%.

As for `O=C(c1cscn1)N1CC[C@H](NC2CN(C(=O)c3sc4cc(Br)ccc4c3Cl)C2)C1` [Cpd 141, (3S)-N-{1-[(6-Bromo-3-chloro-1-benzothiophen-2-yl)carbonyl]azetidin-3-yl}-1-(1,3-thiazol-4-ylcarbonyl)pyrrolidin-3-amine], in test [1], the IC50 was determined as 19 nM. The “Rat Brain 2AG % VehCntrl (%) @1 μM” value in test [2] was determined as 388%.

For `O=C(c1ccc2c(c1)c(F)cn2-c1ccc(F)cc1)N1CC(N[C@H]2CCN(C(=O)c3ccccc3)C2)C1` [Cpd 142, (3S)-N-(1-{[3-Fluoro-1-(4-fluorophenyl)-1H-indol-5-yl]carbonyl}azetidin-3-yl)-1-(phenylcarbonyl)pyrrolidin-3-amine], in test [1], the IC50 amounted to 56.5 nM. Further, in test [2], the “Rat Brain 2AG % VehCntrl (%) @1 μM” value amounted to 247%.

In the case of `O=C(c1ccc2c(c1)c(F)cn2-c1ccc(F)cc1)N1CC(N[C@H]2CCN(C(=O)c3cscn3)C2)C1` [Cpd 143, (3S)-N-(1-{[3-Fluoro-1-(4-fluorophenyl)-1H-indol-5-yl]carbonyl}azetidin-3-yl)-1-(1,3-thiazol-4-ylcarbonyl)pyrrolidin-3-amine], the IC50 in test [1] is 46.5 nM. In test [2], the “Rat Brain 2AG % VehCntrl (%) @1 μM” value is given as 244%.

As for `O=C(c1ccc(Cc2ccc(C(F)(F)F)cc2)cc1)N1CC(N[C@H]2CCN(C(=O)c3cscn3)C2)C1` [Cpd 144, (3S)-1-(1,3-Thiazol-4-ylcarbonyl)-N-[1-({4-[4-(trifluoromethyl)benzyl]phenyl}carbonyl)azetidin-3-yl]pyrrolidin-3-amine], the IC50 in test [1] is below 5 nM. Further, the “Rat Brain 2AG % VehCntrl (%) @1 μM” value in test [2] is 992%.

For `O=C(c1ccc(-c2ccc(C(F)(F)F)cc2)cc1)N1CC(N[C@H]2CCN(C(=O)c3cscn3)C2)C1` [Cpd 145, (3S)-1-(1,3-Thiazol-4-ylcarbonyl)-N-(1-{[4′-(trifluoromethyl)biphenyl-4-yl]carbonyl}azetidin-3-yl)pyrrolidin-3-amine], the IC50 in test [1] was found to be 96.4 nM. In test [2], the “Rat Brain 2AG % VehCntrl (%) @1 μM” value turned out to be 193%.

In the case of `O=C(c1nccs1)N1CC[C@H](NC2CN(C(=O)c3sc4cc(-c5ccccc5)ccc4c3Cl)C2)C1` [Cpd 146, (3S)-N-{1-[(3-Chloro-6-phenyl-1-benzothiophen-2-yl)carbonyl]azetidin-3-yl}-1-(1,3-thiazol-2-ylcarbonyl)pyrrolidin-3-amine], the IC50 in test [1] is below 5 nM. Moreover, the “Rat Brain 2AG % VehCntrl (%) @1 μM” value in test [2] stood at 680%.

In the case of `O=C(c1cscn1)N1CC[C@H](NC2CN(C(=O)c3sc4cc(-c5ccccc5)ccc4c3Cl)C2)C1` [Cpd 147, (3S)-N-{1-[(3-Chloro-6-phenyl-1-benzothiophen-2-yl)carbonyl]azetidin-3-yl}-1-(1,3-thiazol-4-ylcarbonyl)pyrrolidin-3-amine], in test [1], the IC50 was below 5 nM. Moreover, the “Rat Brain 2AG % VehCntrl (%) @1 μM” value in test [2] is on record as 506%.

For the molecule `O=C(c1nccs1)N1CC[C@H](NC2CN(C(=O)c3sc4cc(-c5cccc(C(F)(F)F)c5)ccc4c3Cl)C2)C1` [Cpd 148, (3S)-N-[1-({3-Chloro-6-[3-(trifluoromethyl)phenyl]-1-benzothiophen-2-yl}carbonyl)azetidin-3-yl]-1-(1,3-thiazol-2-ylcarbonyl)pyrrolidin-3-amine], the IC50 in test [1] was below 5 nM. In addition, the “Rat Brain 2AG % VehCntrl (%) @1 μM” value in test [2] is recorded as 942%.

On to `O=C(c1cscn1)N1CC[C@H](NC2CN(C(=O)c3sc4cc(-c5cccc(C(F)(F)F)c5)ccc4c3Cl)C2)C1` [Cpd 149, (3S)-N-[1-({3-Chloro-6-[3-(trifluoromethyl)phenyl]-1-benzothiophen-2-yl}carbonyl)azetidin-3-yl]-1-(1,3-thiazol-4-ylcarbonyl)pyrrolidin-3-amine], for which the IC50 in test [1] is below 5 nM. In addition, the “Rat Brain 2AG % VehCntrl (%) @1 μM” value in test [2] was found to be 811%.
